Laboratory results as given in US10704122B2, “Simple chemical method for the separation of rare earth metals” (THE TRUSTEES OF THE UNIVERSITY OF PENNSYLVANIA, priority 2014, dated 2020).

Assays:
[1] = Air stability observation; assay type: physicochemical; settings: solid and solution states
[2] = Solubility in benzene quantified by 1H NMR of saturated C6D6 solutions; assay type: physicochemical; settings: 1H NMR against ferrocene internal standard
Experimental: The absence of mixed-metal dimer formation prompted a search for conditions where the dimerization of Nd(TriNOx)THF could be exploited for solubility differences between the Nd and Dy species. […] These solubilities were quantified by ^1H NMR spectroscopy, where saturated C6D6 solutions of the complexes were prepared and measured against a ferrocene internal standard.

Compound	air stability [1]	solubility in benzene [2] [mM]
CC(C)(C)N(O)c1ccccc1CN(Cc1ccccc1N(O)C(C)(C)C)Cc1ccccc1N(O)C(C)(C)C [H3TriNOx, tris(2-tert-butylhydroxylaminato)benzylamine]	air stable in both the solid and solution states	
Dy[(2-(^tBuNOH)CH2—C6H4)3N]THF [Dy(TriNOx)THF]		1.2
Nd[(2-(^tBuNOH)CH2—C6H4)3N]THF [Nd(TriNOx)THF]		60
